Where two headings read alike, the source gives them in different places.
Legend:
M9ENL AML cell lines [1] = assay: cells; conditions: Table 5; cell line not given
M9ENL AML cell lines [2] = conditions: for EC50: Table 5, cell line not given; for CC50: read-out: LC50, M9ENL AML cell lines, after 24 hours of drug exposure; for potency relative to parthenolide and MMB: M9 ENL cell lines
AML cell line AML 123009 = conditions: for cytotoxicity relative to PTL: AML 123009, FIG. 6; for EC50: read-out: Viability EC50, AML cell line 123009

`C[C@@]12CC/C=C3\CC[C@@H]4[C@H](OC(=O)[C@H]4CNCCCCCCCCNC[C@@H]4C(=O)O[C@H]5[C@H]4CC/C(=C\CC[C@@]4(C)O[C@@H]54)COC(=O)NCCCCCCCCNC(=O)OC3)[C@@H]1O2` [JVM 3-62-2] showed an EC50 (M9ENL AML cell lines [1]) of 38000 nM.

`C=C1C(=O)O[C@H]2[C@H]1CC/C(COC(=O)OCCC(CCO)OCCCCCCCCCCn1cc(CNC(=O)CCCCC3SCC4NC(=O)NC43)nn1)=C\CC[C@@]1(C)O[C@@H]21` (stereo partly drawn) [BS-4-38b] gave an EC50 (M9ENL AML cell lines [1]) of 30000 nM.

Molecule `C=C1C(=O)O[C@H]2[C@H]1CC/C(COC(=O)NCCC(O)CCNC(=O)OC/C1=C/CC[C@@]3(C)O[C@H]3[C@H]3OC(=O)C(=C)[C@@H]3CC1)=C\CC[C@@]1(C)O[C@@H]21` (stereo partly drawn) [BS-3-24] has an EC50 (M9ENL AML cell lines [1]) of 9030 nM.

`C=C1C(=O)O[C@H]2[C@H]1CC/C(COC(=O)OCCC(CCOC(=O)OC/C1=C/CC[C@@]3(C)O[C@H]3[C@H]3OC(=O)C(=C)[C@@H]3CC1)OCCCCCCCCCCn1cc(CNC(=O)CCCCC3SCC4NC(=O)NC43)nn1)=C\CC[C@@]1(C)O[C@@H]21` (stereo partly drawn) [BS-4-38a] gave an EC50 (M9ENL AML cell lines [1]) of 20000 nM.

`CN(C)CC1C(=O)O[C@H]2[C@H]1CC/C(COC(=O)NCCCCCCCCNC(=O)OC/C1=C/CC[C@@]3(C)O[C@H]3[C@H]3OC(=O)C(CN(C)C)[C@@H]3CC1)=C\CC[C@@]1(C)O[C@@H]21` (single isomer, unassigned) [JVM 3-62B] gave an EC50 (M9ENL AML cell lines [2]) of 1200 nM.

`C=C1C(=O)O[C@H]2[C@H]1CC/C(Cn1cc(-c3cccc(-c4cn(C/C5=C/CC[C@@]6(C)O[C@H]6[C@H]6OC(=O)C(=C)[C@@H]6CC5)nn4)c3)nn1)=C\CC[C@@]1(C)O[C@@H]21` [JVM 4-41A] showed an EC50 (M9ENL AML cell lines [1]) of 2300 nM.

In the case of `C=C1C(=O)O[C@H]2[C@H]1CC/C(COC(=O)CC(=O)OC/C1=C/CC[C@@]3(C)O[C@H]3[C@H]3OC(=O)C(=C)[C@@H]3CC1)=C\CC[C@@]1(C)O[C@@H]21` [JVM 3-99, bis(((1aR,7aS,10aS,10bS,E)-1a-methyl-8-methylene-9-oxo-1a,2,3,6,7,7a,8,9,10a, 1b-decahydrooxireno[2′,3′:9,10]cyclodeca[1,2-b]furan-5-yl)methyl)malonate], the “cytotoxicity relative to PTL” value (AML cell line AML 123009) is reported as “enhanced cytotoxicity relative to PTL”, the EC50 (AML cell line AML 123009) is reported as 1000 nM and the EC50 (M9ENL AML cell lines [2]) is reported as 1000 nM.

Molecule `C=C1C(=O)OC2C1CCC(COC(=O)NCCCCCCCNC(=O)OCC1=CCCC3(C)OC3C3OC(=O)C(=C)C3CC1)=CCCC1(C)OC21` [JVM 3-58, bis(((1aR,7aS, 10aS, 10bS, E)-1a-Methyl-8-methylene-9-oxo-1a,2,3,6,7,7a,8,9,10a,10b-decahydrooxireno[2′,3′:9,10]cyclodeca[1,2-b]furan-5-yl)methyl)heptane-1,7-diyldicarbamate] has a CC50 (M9ENL AML cell lines [2]) of 1200 nM.

For `C=C1C(=O)OC2C1CCC(COC(=O)NCCCCCCCCCNC(=O)OCC1=CCCC3(C)OC3C3OC(=O)C(=C)C3CC1)=CCCC1(C)OC21` [JVM 3-61, bis(((1aR,7aS, 10aS, 10bS, E)-1a-Methyl-8-methylene-9-oxo-1a,2,3,6,7,7a,8,9,10a, 1b-decahydrooxireno[2′,3′:9,10]cyclodeca[1,2-b]furan-5-yl)methyl)nonane-1,9-diyldicarbamate], the CC50 (M9ENL AML cell lines [2]) was 1800 nM.

In the case of `C=C1C(=O)O[C@H]2[C@H]1CC/C(Cn1cc(CNCc3cn(C/C4=C/CC[C@@]5(C)O[C@H]5[C@H]5OC(=O)C(=C)[C@@H]5CC4)nn3)nn1)=C\CC[C@@]1(C)O[C@@H]21` [JVM 4-44], the EC50 (M9ENL AML cell lines [1]) is reported as 51600 nM.

`CN(C)CC1C(=O)O[C@H]2[C@H]1CC/C(COC(=O)OC/C1=C/CC[C@@]3(C)O[C@H]3[C@H]3OC(=O)C(CN(C)C)[C@@H]3CC1)=C\CC[C@@]1(C)O[C@@H]21` (stereo partly drawn) [JVM 3-55 B] gave an EC50 (M9ENL AML cell lines [1]) of 5100 nM.

For `C=C1C(=O)O[C@H]2[C@H]1CC/C(COC(=O)NCCCCCCCCNCC1C(=O)O[C@H]3[C@H]1CC/C(COC(=O)NCCCCCCCCNC(=O)OC/C1=C/CC[C@@]4(C)O[C@H]4[C@H]4OC(=O)[C@@H](CNCCCCCCCCNC(=O)OC/C5=C/CC[C@@]6(C)O[C@H]6[C@H]6OC(=O)C(=C)[C@@H]6CC5)[C@@H]4CC1)=C\CC[C@@]1(C)O[C@@H]31)=C\CC[C@@]1(C)O[C@@H]21` (stereo partly drawn) [JVM 3-62-1], the EC50 (M9ENL AML cell lines [1]) was 1700 nM.

`C=C1C(=O)O[C@H]2[C@H]1CC/C(COC(=O)OCCC(CCOC(=O)OC/C1=C/CC[C@@]3(C)O[C@H]3[C@H]3OC(=O)C(=C)[C@@H]3CC1)O[Si](C)(C)C(C)(C)C)=C\CC[C@@]1(C)O[C@@H]21` (stereo partly drawn) [BS-3-14] gave an EC50 (M9ENL AML cell lines [1]) of 1110 nM.

Work on `C=C1C(=O)OC2C1CCC(COC(=O)NCCCCCCNC(=O)OCC1=CCCC3(C)OC3C3OC(=O)C(=C)C3CC1)=CCCC1(C)OC21` [JVM 3-64, bis(((1aR,7aS,10aS,10bS,E)-1a-Methyl-8-methylene-9-oxo-1a,2,3,6,7,7a,8,9,10a,10b-decahydrooxireno[2′,3′:9,10]cyclodeca[1,2-b]furan-5-yl)methyl)hexane-1,6-diyldicarbamate] yielded a CC50 (M9ENL AML cell lines [2]) of 340 nM.

In the case of `C=C1C(=O)O[C@H]2[C@H]1CC/C(Cn1cc(CCCc3cn(C/C4=C/CC[C@@]5(C)O[C@H]5[C@H]5OC(=O)C(=C)[C@@H]5CC4)nn3)nn1)=C\CC[C@@]1(C)O[C@@H]21` [JVM 4-51], the EC50 (M9ENL AML cell lines [1]) is reported as 4000 nM.

`C=C1C(=O)O[C@H]2[C@H]1CC/C(C(=O)NCCCCCCCCCCNC(=O)/C1=C/CC[C@@]3(C)O[C@H]3[C@H]3OC(=O)C(=C)[C@@H]3CC1)=C\CC[C@@]1(C)O[C@@H]21` [JVM 3-83, (1aR,1a′R,4E,4′E,7aS,7a′S,10aS, 10bS, 10a′S, 10b′S)—N,N′-(decane-1,10-diyl)bis(1a-methyl-8-methylene-9-oxo-1a,2,3,6,7,7a,8,9,10a,10b-decahydrooxireno[2′,3′:9,10]cyclodeca[1,2-b]furan-5-carboxamide)] was tested, and the “cytotoxicity relative to PTL” value (AML cell line AML 123009) was “enhanced cytotoxicity relative to PTL”, the EC50 (AML cell line AML 123009) was 2800 nM and the “potency relative to parthenolide and MMB” value (M9ENL AML cell lines [2]) was “more potency than parthenolide and MMB”. For the same molecule, the EC50 (M9ENL AML cell lines [2]) was 2800 nM.

For `C=C1C(=O)OC2C1CCC(COC(=O)OCCCCOC(=O)OCC1=CCCC3(C)OC3C3OC(=O)C(=C)C3CC1)=CCCC1(C)OC21` [JVM 3-91A, butane-1,4-diylbis(((1aR,7aS,10aS,10bS,E)-1a-methyl-8-methylene-9-oxo-1a,2,3,6,7,7a, 8,9,10a,10b-decahydrooxireno[2′,3′:9,10]cyclodeca[1,2-b]furan-5-yl)methyl)dicarbonate], the “cytotoxicity relative to PTL” value (AML cell line AML 123009) was “enhanced cytotoxicity relative to PTL”, the EC50 (AML cell line AML 123009) was 930 nM and the EC50 (M9ENL AML cell lines [2]) was 930 nM.

With `C=C1C(=O)OC2C1CCC(C(=O)NCCCCCCCCNC(=O)C1=CCCC3(C)OC3C3OC(=O)C(=C)C3CC1)=CCCC1(C)OC21` [JVM 3-78, (1aR,1a′R,4E,4′E,7aS,7a′S, 10aS, 10bS, 10a′S, 10b′S)—N,N′-(octane-1,8-diyl)bis(1a-methyl-8-methylene-9-oxo-1a,2,3,6,7,7a,8,9,10a,10b-decahydrooxireno[2′,3′:9,10]cyclodeca[1,2-b]furan-5-carboxamide)] the “potency relative to parthenolide and MMB” value (M9ENL AML cell lines [2]) was “more potency than parthenolide and MMB”.

With `C=C1C(=O)OC2C1CCC(C(=O)NCCCCCCCNC(=O)C1=CCCC3(C)OC3C3OC(=O)C(=C)C3CC1)=CCCC1(C)OC21` [JVM 3-84, (1aR,1a′R,4E,4′E,7aS,7a′S,10aS,10bS,10a′S,10b′S)—N,N′-(heptane-1,7-diyl)bis(1a-methyl-8-methylene-9-oxo-1a,2,3,6,7,7a,8,9,10a,10b-decahydrooxireno[2′,3′:9,10]cyclodeca[1,2-b]furan-5-carboxamide)] the “potency relative to parthenolide and MMB” value (M9ENL AML cell lines [2]) was “more potency than parthenolide and MMB”.

For `C=C1C(=O)OC2C1CCC(COC(=O)NCCCNC(=O)OCC1=CCCC3(C)OC3C3OC(=O)C(=C)C3CC1)=CCCC1(C)OC21` [JVM 3-55, bis(((1aR,7aS,10aS,10bS,E)-1a-Methyl-8-methylene-9-oxo-1a,2,3,6,7,7a,8,9,10a,10b-decahydrooxireno[2′,3′:9,10]cyclodeca[1,2-b]furan-5-yl)methyl)propane-1,3-diyldicarbamate], the CC50 (M9ENL AML cell lines [2]) was 560 nM.

Molecule `C=C1C(=O)O[C@H]2[C@H]1CC/C(COC(=O)NCCCCCCCCCCNC(=O)OC/C1=C/CC[C@@]3(C)O[C@H]3[C@H]3OC(=O)C(=C)[C@@H]3CC1)=C\CC[C@@]1(C)O[C@@H]21` [JVM 3-65, bis(((1aR,7aS,10aS, 10bS,E)-1a-Methyl-8-methylene-9-oxo-1a,2,3,6,7,7a,8,9,10a,10b-decahydrooxireno[2,3′:9,10]cyclodeca[1,2-b]furan-5-yl)methyl)decane-1,10-diyldicarbamate] has a CC50 (M9ENL AML cell lines [2]) of 1600 nM.

Molecule `CN(C)CC1C(=O)O[C@H]2[C@H]1CC/C(COC(=O)NCCCCCCCCNC(=O)OC/C1=C/CC[C@@]3(C)O[C@H]3[C@H]3OC(=O)C(CN(C)C)[C@@H]3CC1)=C\CC[C@@]1(C)O[C@@H]21` (single isomer, unassigned) [JVM 3-62A] has an EC50 (M9ENL AML cell lines [1]) of 1300 nM.

In the case of `C=C1C(=O)OC2C1CCC(C(=O)NCCCCCCCCCNC(=O)C1=CCCC3(C)OC3C3OC(=O)C(=C)C3CC1)=CCCC1(C)OC21` [JVM 3-82, (1aR,1a′R,4E,4′E,7aS,7a′S,10aS,10bS,10a′S,10b′S)—N,N′-(nonane-1,9-diyl)bis(1a-methyl-8-methylene-9-oxo-1a,2,3,6,7,7a,8,9,10a,10b-decahydrooxireno[2 ′,3 ′9,10]cyclodeca[1,2-b]furan-5-carboxamide)], the “potency relative to parthenolide and MMB” value (M9ENL AML cell lines [2]) is reported as “more potency than parthenolide and MMB”.

Reference: patent US10118935B2, “Melampomagnolide B dimers” (priority 2014, dated 2018)
